Laboratory results reported in PubChem BioAssay (NCI).
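Where inhibition never reached the appropriate level, the endpoint shown equals the highest concentration tested. Otherwise, values were interpolated linearly from a five-concentration, 48-hour dose response in 96-well plates. GI50 = concentration required for 50% inhibition of growth. TGI: total growth inhibition.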

Tests used:
Assay in all cases: NCI anticancer screen, dose series, 48 h
786-0 renal = tested on: 786-0 renal
A498 renal = tested on: A498 renal
A549 NSCLC = tested on: A549 NSCLC
ACHN renal = tested on: ACHN renal
BT-549 breast = tested on: BT-549 breast
CAKI-1 renal = tested on: CAKI-1 renal
CCRF-CEM leukemia = tested on: CCRF-CEM leukemia
COLO 205 colon = tested on: COLO 205 colon
DU-145 prostate = tested on: DU-145 prostate
EKVX NSCLC = tested on: EKVX NSCLC
HCC-2998 colon = tested on: HCC-2998 colon
HCT-116 colon = tested on: HCT-116 colon
HCT-15 colon = tested on: HCT-15 colon
HL-60(TB) leukemia = tested on: HL-60(TB) leukemia
HOP-62 NSCLC = tested on: HOP-62 NSCLC
HOP-92 NSCLC = tested on: HOP-92 NSCLC
HS 578T breast = tested on: HS 578T breast
HT29 colon = tested on: HT29 colon
IGROV1 ovarian = tested on: IGROV1 ovarian
K-562 leukemia = tested on: K-562 leukemia
KM12 colon = tested on: KM12 colon
LOX IMVI melanoma = tested on: LOX IMVI melanoma
M14 melanoma = tested on: M14 melanoma
MALME-3M melanoma = tested on: MALME-3M melanoma
MCF7 breast = tested on: MCF7 breast
MDA-MB-231 breast = tested on: MDA-MB-231 breast
MDA-MB-435 = tested on: MDA-MB-435
MDA-MB-468 breast = tested on: MDA-MB-468 breast
MOLT-4 leukemia = tested on: MOLT-4 leukemia
NCI-H226 lung = tested on: NCI-H226 lung
NCI-H23 lung = tested on: NCI-H23 lung
NCI-H460 lung = tested on: NCI-H460 lung
NCI-H522 lung = tested on: NCI-H522 lung
NCI/ADR-RES ovarian = tested on: NCI/ADR-RES ovarian
OVCAR-3 ovarian = tested on: OVCAR-3 ovarian
OVCAR-4 ovarian = tested on: OVCAR-4 ovarian
OVCAR-5 ovarian = tested on: OVCAR-5 ovarian
OVCAR-8 ovarian = tested on: OVCAR-8 ovarian
PC-3 prostate = tested on: PC-3 prostate
RPMI-8226 leukemia = tested on: RPMI-8226 leukemia
RXF 393 renal = tested on: RXF 393 renal
SF-268 CNS = tested on: SF-268 CNS
SF-295 CNS = tested on: SF-295 CNS
SF-539 CNS = tested on: SF-539 CNS
SK-MEL-2 melanoma = tested on: SK-MEL-2 melanoma
SK-MEL-28 melanoma = tested on: SK-MEL-28 melanoma
SK-MEL-5 melanoma = tested on: SK-MEL-5 melanoma
SK-OV-3 ovarian = tested on: SK-OV-3 ovarian
SN12C renal = tested on: SN12C renal
SNB-19 CNS = tested on: SNB-19 CNS
SNB-75 CNS = tested on: SNB-75 CNS
SR leukemia = tested on: SR leukemia
SW-620 colon = tested on: SW-620 colon
T-47D breast = tested on: T-47D breast
TK-10 renal = tested on: TK-10 renal
U251 CNS = tested on: U251 CNS
UACC-257 melanoma = tested on: UACC-257 melanoma
UACC-62 melanoma = tested on: UACC-62 melanoma
UO-31 renal = tested on: UO-31 renal

Fc1ccccc1CNc1nc(SCCN2CCOCC2)nc2c1cnn2CC(Cl)c1ccc(Br)cc1 (stereo not drawn)
GI50 (786-0 renal): 3.31 µM | TGI (786-0 renal): 30.6 µM | GI50 (A498 renal): 8.94 µM | TGI (A498 renal): > 100 µM | GI50 (A549 NSCLC): 4.06 µM | TGI (A549 NSCLC): > 100 µM | GI50 (ACHN renal): 4.39 µM | TGI (ACHN renal): > 100 µM | GI50 (BT-549 breast): 20.9 µM | TGI (BT-549 breast): > 100 µM | GI50 (CAKI-1 renal): 3.83 µM | TGI (CAKI-1 renal): > 100 µM | GI50 (CCRF-CEM leukemia): 3.34 µM | TGI (CCRF-CEM leukemia): > 100 µM | GI50 (COLO 205 colon): 2.8 µM | TGI (COLO 205 colon): 8.12 µM | GI50 (DU-145 prostate): 49.6 µM | TGI (DU-145 prostate): > 100 µM | GI50 (EKVX NSCLC): 5.28 µM | TGI (EKVX NSCLC): > 100 µM | GI50 (HCC-2998 colon): 3.94 µM | TGI (HCC-2998 colon): > 100 µM | GI50 (HCT-116 colon): 3.67 µM | TGI (HCT-116 colon): > 100 µM | GI50 (HCT-15 colon): 1.69 µM | TGI (HCT-15 colon): 3.95 µM | GI50 (HL-60(TB) leukemia): 4.1 µM | TGI (HL-60(TB) leukemia): > 100 µM | GI50 (HOP-62 NSCLC): 7.35 µM | TGI (HOP-62 NSCLC): > 100 µM | GI50 (HOP-92 NSCLC): 3.96 µM | TGI (HOP-92 NSCLC): > 100 µM | GI50 (HS 578T breast): 3.6 µM | TGI (HS 578T breast): > 100 µM | GI50 (HT29 colon): 1.47 µM | TGI (HT29 colon): 3.39 µM | GI50 (IGROV1 ovarian): > 100 µM | TGI (IGROV1 ovarian): > 100 µM | GI50 (K-562 leukemia): 2.55 µM | TGI (K-562 leukemia): > 100 µM | GI50 (KM12 colon): 3.74 µM | TGI (KM12 colon): > 100 µM | GI50 (LOX IMVI melanoma): 2.6 µM | TGI (LOX IMVI melanoma): 7.91 µM | GI50 (M14 melanoma): 4.19 µM | TGI (M14 melanoma): > 100 µM | GI50 (MALME-3M melanoma): 2.54 µM | TGI (MALME-3M melanoma): 6.89 µM | GI50 (MCF7 breast): 3.58 µM | TGI (MCF7 breast): > 100 µM | GI50 (MDA-MB-231 breast): 3.6 µM | TGI (MDA-MB-231 breast): > 100 µM | GI50 (MDA-MB-435): 4.98 µM | TGI (MDA-MB-435): > 100 µM | GI50 (MDA-MB-468 breast): 2.26 µM | TGI (MDA-MB-468 breast): 7 µM | GI50 (MOLT-4 leukemia): 3.46 µM | TGI (MOLT-4 leukemia): > 100 µM | GI50 (NCI-H226 lung): 3.52 µM | TGI (NCI-H226 lung): > 100 µM | GI50 (NCI-H23 lung): 7.76 µM | TGI (NCI-H23 lung): > 100 µM | GI50 (NCI-H460 lung): 3.99 µM | TGI (NCI-H460 lung): > 100 µM | GI50 (NCI-H522 lung): 5.16 µM | TGI (NCI-H522 lung): > 100 µM | GI50 (NCI/ADR-RES ovarian): 4.24 µM | TGI (NCI/ADR-RES ovarian): > 100 µM | GI50 (OVCAR-3 ovarian): 37.4 µM | TGI (OVCAR-3 ovarian): > 100 µM | GI50 (OVCAR-4 ovarian): 3.49 µM | TGI (OVCAR-4 ovarian): > 100 µM | GI50 (OVCAR-5 ovarian): > 100 µM | TGI (OVCAR-5 ovarian): > 100 µM | GI50 (OVCAR-8 ovarian): 6.36 µM | TGI (OVCAR-8 ovarian): > 100 µM | GI50 (PC-3 prostate): 3.73 µM | TGI (PC-3 prostate): > 100 µM | GI50 (RPMI-8226 leukemia): 2.67 µM | TGI (RPMI-8226 leukemia): 8.25 µM | GI50 (RXF 393 renal): 1.43 µM | TGI (RXF 393 renal): 5.27 µM | GI50 (SF-268 CNS): 6.08 µM | TGI (SF-268 CNS): > 100 µM | GI50 (SF-295 CNS): 3.04 µM | TGI (SF-295 CNS): > 100 µM | GI50 (SF-539 CNS): 2.29 µM | TGI (SF-539 CNS): 6.94 µM | GI50 (SK-MEL-2 melanoma): 2.9 µM | TGI (SK-MEL-2 melanoma): 11.7 µM | GI50 (SK-MEL-28 melanoma): 4.99 µM | TGI (SK-MEL-28 melanoma): > 100 µM | GI50 (SK-MEL-5 melanoma): 2.87 µM | TGI (SK-MEL-5 melanoma): 10.7 µM | GI50 (SK-OV-3 ovarian): > 100 µM | TGI (SK-OV-3 ovarian): > 100 µM | GI50 (SN12C renal): 5.93 µM | TGI (SN12C renal): > 100 µM | GI50 (SNB-19 CNS): 7.08 µM | TGI (SNB-19 CNS): > 100 µM | GI50 (SNB-75 CNS): 2.71 µM | TGI (SNB-75 CNS): > 100 µM | GI50 (SR leukemia): 4.8 µM | TGI (SR leukemia): > 100 µM | GI50 (SW-620 colon): 2.05 µM | TGI (SW-620 colon): 5.39 µM | GI50 (T-47D breast): 2.87 µM | TGI (T-47D breast): > 100 µM | GI50 (TK-10 renal): > 100 µM | TGI (TK-10 renal): > 100 µM | GI50 (U251 CNS): 5.93 µM | TGI (U251 CNS): > 100 µM | GI50 (UACC-257 melanoma): 3.38 µM | TGI (UACC-257 melanoma): 79.1 µM | GI50 (UACC-62 melanoma): 2.09 µM | TGI (UACC-62 melanoma): 5.23 µM | GI50 (UO-31 renal): 3.13 µM | TGI (UO-31 renal): > 100 µM
